Experimental data reported in paper PMC12612990, “PNA5, a glycosylated angiotensin-(1−7) mas receptor agonist for vascular dementia: A two species toxicology and toxicokinetic study” (Toxicology Reports, 2025).
Peptide text beside a SMILES is read from it. * marks the point of attachment. βGlc = OC[C@H]1O[C@@H](*)[C@H](O)[C@@H](O)[C@@H]1O

Tests used:
Sprague Dawley rats = test: 28-day repeat-dose subcutaneous toxicology study (main and recovery) in Sprague Dawley rats; format: in vivo, rat
Protocol: Rats used in studies were inspected upon receipt for good health and were acclimated for 7 days at a minimum. Male and female rats were randomly selected for one of the four treatment groups upon receipt. Group 1 rats received vehicle control (0.9 % sodium chloride (saline) for injection, USP) subcutaneously for 28 days. Rats in groups 2–4 received PNA5 at 1, 5, or 40 mg/kg/day subcutaneously for 28 days (Table 1). Rats for all studies were dosed once daily for 28 consecutive days via subcutaneous bolus injection. The first day of dosing was based on day 1 body weights. Toxicokinetic study animals were dosed in the same fashion as for the main and recovery study animals.
Rats are observed at least twice daily (morning and afternoon) beginning upon arrival through termination/release for mortality. For the toxicology main study, 10 rats per sex were randomly assigned to groups 1–4. 5 rats per sex were assigned to groups 1 (control) and group 4 (PNA5 at 40 mg/kg/day) for the toxicology recovery study. The number of animals used for the toxicokinetic groups was calculated to meet a sufficient number of animals to provide samples for toxicokinetic analysis while minimizing the number of blood collections per animal.
After 28 treatments, animals that were a part of the main and toxicokinetic study were scheduled for euthanasia on day 29, during which the necropsy measures were collected for the main study animals. Rats that were a part of the recovery animal study started the recovery period on day 29 and were scheduled for euthanasia on day 57, during which the same necropsy measures were collected. Animals were euthanized for humane reasons or at study termination via carbon dioxide inhalation followed by exsanguination via the vena cava for necropsy. Main Study and Recovery animals were fasted overnight prior to the scheduled necropsy. Following the final blood collection, animals in the toxicokinetic studies were euthanized by inhalation of carbon dioxide but were not exsanguinated for necropsy.
The following parameters and end points were evaluated in this study: mortality, clinical observations, body weights, body weight gains, food consumption, ophthalmology, clinical pathology parameters (hematology, coagulation, clinical chemistry, and urinalysis), toxicokinetic parameters, organ weights, and macroscopic and microscopic examinations.
Animals were observed daily. On days with dosing, observations were made 10–30 min postdosing. During the dosing, observations included but were not limited to the following: Changes in skin on the whole animal and at the injection site, fur, eyes, mucous membrane, and respiratory functions.
A detailed clinical observation was performed 1 week prior to randomization, on the date of randomization, and then weekly during the study period, with the last observation on the day of the scheduled necropsy.
The injection site was shaved and marked for identification and evaluation during the study. The injection site was collected at necropsy.
Rats were weighed within 4 days of receipt, on the day of randomization, daily during the study, and on the day of the scheduled necropsies. Dogs were weighed one week prior to randomization (± 2 days), on the day of randomization, on Day 1 (prior to dosing), weekly (± 2 days) during the study period, on the day prior to the scheduled necropsies, and on the day of the scheduled necropsy.
Rats' food consumption was measured quantitatively once weekly beginning on Day 1 and persisting throughout the study. Dogs' food consumption was measured daily beginning on Day 1 and persisting throughout the study.
Ophthalmic examinations were conducted by a board-certified veterinary ophthalmologist using an indirect ophthalmoscope and slit lamp biomicroscope. Prior to examination, animals will be treated with a mydriatic agent. […]

[1] = Toxicokinetics of PNA5 in Sprague Dawley rat plasma; details: for AUC(0-t) / Cmax / half-life / Tmax: both, Sprague Dawley, rat, sc; for AUC(0-t) / Cmax / half-life / Tmax / Kel: plasma; for AUC(0-t): AUC0–2, rats, n = 6, linear trapezoidal; for AUC(0-t) / Cmax / half-life / Kel: mean ± SD; for Cmax: Sprague Dawley rats, n = 6, UHPLC-MS/MS, noncompartmental; for half-life: n = 6, Ln(2)/Kel; for AUC0–2hr averaged accumulation ratio: day 1 to day 28, sexes combined; for F:M AUC0–2hr ratio: printed as on day 1; for fold increase in AUC0–2hr for a 40-fold increase in dose / fold increase in Cmax for a 40-fold increase in dose: 1 to 40 mg/kg/day; for Kel: n = 6, exponential regression
Protocol: Toxicokinetic (TK) of PNA5 was obtained from plasma following a single and repeated subcutaneous injection administration of PNA5 once daily for 28 days. Blood samples were collected on days 1 and 28 at the following time points: pre-dose and at approximately 5, 15, 30, 60, and 120 min post-dose (equivalent to 0.083, 0.25, 0.5, 1, and 2 h).
For the rat study, a total of 6 rats for each sex were assigned randomly to treatment groups 2–4 (those treated with PNA5). Three rats per sex were assigned to group 1 (vehicle control). Rats were sampled in satellite groups; rats' blood was taken at alternating time points, resulting in a total n = 3 per time point for six animals. For the dog study, three animals per sex were assigned to group 2 and group 3, and five animals per sex were assigned to group 1 and group 4. Blood was collected from canines via venipuncture.
Blood was collected in heparinized tubes containing a protease inhibitor cocktail consisting of 4 mM 0-phenanthroline, 1.2 mM pepstatin A, and 0.5 M EDTA. Blood samples were centrifuged for 15 min at 2500 x g at room temperature. Plasma was transferred into pre-cooled, pre-labeled collection tubes, frozen immediately in liquid nitrogen/dry ice, and stored at −80 °C until analysis.
PNA5 levels were analyzed using ultra-high performance liquid chromatography (UHPLC) with tandem mass spectrometric (MS/MS) detection. Precision and accuracy, reproducibility, selectivity, carryover, recovery, matrix effects, dilution integrity, hemolysis, stock stability, and matrix stability were assessed prior to initiation of the validation. Samples (5 µL) were injected onto the column and separated using gradient elution. Target compounds were quantified by summing the height of previously identified fragment peaks in the LC-MS [3] spectra. The serum concentrations were estimated using a calibration curve, accounting for the dilution factors and the probe recoveries for each experiment. Standards were matrix-matched to samples and underwent the same sample preparation steps.
A noncompartmental analysis was used for parameter estimation. For PNA5 in plasma, the extravascular model was used for parameter estimation. For the rat study, all parameters were generated from PNA5 individual concentrations in plasma from days 1 and 28. Parameters were estimated using nominal dose levels and nominal sampling times relative to the dose administration. Plasma concentration values obtained at the pre-dose time point were used as the concentration at time 0 on days 1 and 28. For the dog study, all parameters were generated from PNA5 individual concentrations in plasma from days 1 and 28. Parameters were estimated using nominal dose levels and nominal sampling times relative to dose administration. Plasma concentration values obtained at the pre-dose time point were used as the concentration at time 0 on days 1 and 28. For Beagle dogs, concentration values reported as below the limit of quantitation (< 5 ng/mL) were assigned a value of 0.
The toxicokinetic parameters evaluated included the area under the curve of the plasma PNA5 concentration against time from time 0 (pre-dose) to 2 h (post-dose) (AUC0–2hr), the maximum plasma concentration (Cmax), time to maximum plasma concentration (Tmax), elimination rate (Kel), and the half-life. The area under the concentration vs. time curve was calculated using the linear trapezoidal method with linear interpolation for all profiles with at least three consecutive quantifiable concentrations. Kel was calculated from the slope using exponential regression of concentration versus time (Excel); exponential interpolations for all profiles include at least three concentrations plotted against time. Time 0 values and all concentrations listed as zero were excluded from Kel calculations. The half-life was calculated from Kel via the following equation: half-life Ln(2)/Kel.

male Beagle dogs = test: Cardiovascular safety evaluation after a single subcutaneous dose in male Beagle dogs; format: in vivo, dog; details: single s.c. injection 1, 5 or 20 mg/kg
Protocol: PNA5 -related cardiovascular effects were evaluated in male Beagle dogs at dose levels of 1, 5, or 20 mg/kg. To evaluate the effects of PNA5 when administered subcutaneously on the cardiovascular system the following parameters were measured including clinical observations, heart rate, arterial blood pressure (systolic, diastolic, and mean), pulse pressure, body temperature, and ECG waveforms (from which ECG waveform morphologies and ECG intervals PR, QRS, QT, and heart rate corrected QT [QTc] were derived).

male Sprague Dawley rats = test: Pulmonary safety parameters after a single subcutaneous dose in male Sprague Dawley rats; format: in vivo, rat; details: single s.c. dose 1, 5 or 40 mg/kg, n = 8 per group
Protocol: Respiratory rate, tidal volume, and calculated minute volume were measured in male Sprague Dawley rats to measure pulmonary safety parameters after a single subcutaneous dose of 0, 1, 5, or 40 mg/kg PNA5 (n = 8 males per group).

Beagle dogs = test: 28-day repeat-dose subcutaneous toxicology study (main and recovery) in Beagle dogs
[2] = rats, 1, 5, 40 mg/kg/day s.c. for 28 days
[3] = rats, main study, day 29 necropsy
[4] = rats, recovery study, 40 mg/kg/day vs control
[5] = dogs, 1, 5, 20 mg/kg/day s.c. for 28 days
[6] = dogs, main study, day 29 necropsy

CC[C@H](C)[C@H](NC(=O)[C@H](Cc1ccc(O)cc1)NC(=O)[C@@H](NC(=O)[C@H](CCCNC(=N)N)NC(=O)[C@@H](N)CC(=O)O)C(C)C)C(=O)N[C@@H](Cc1c[nH]cn1)C(=O)N[C@@H](CO[C@@H]1O[C@H](CO)[C@@H](O)[C@H](O)[C@H]1O)C(N)=O [PNA5, Ang-1–6-Ser-O-Glu-NH2] (H-DRVYIHS(βGlc)-NH2)
tolerability (mortality, adverse findings) (Sprague Dawley rats; Sprague-Dawley rats, main and recovery studies, s.c. bolus once daily 28 days, 1, 5, 40 mg/kg/day): well tolerated at all doses with no effects on mortality or adverse findings
mixed cell infiltration at the subcutaneous dorsoscapular injection site (Sprague Dawley rats; rats, 40 mg/kg/day group females, main study, considered within the expected response to the injection procedure): increase in incidence and severity of mixed cell infiltration
prostate/seminal vesicle weight normalized to body weight or brain weight vs control (Sprague Dawley rats; rats, 40 mg/kg/day group males, recovery study, considered incidental, absolute weights not different): significantly higher
body weights and body weight gains (Sprague Dawley rats; [2]): unaffected
food consumption (Sprague Dawley rats; [2]): unaffected
clinical observations (Sprague Dawley rats; rats, 1, 5, 40 mg/kg/day subq for 28 days, main and recovery study): no test article-related clinical observations
survival (Sprague Dawley rats; rats, 1, 5 and 40 mg/kg/day s.c. for 28 days): All animals survived until the scheduled euthanasia
ophthalmic examinations (Sprague Dawley rats; rats, all test article-treated groups): No ophthalmic lesions indicative of toxicity were observed
hematology, coagulation, clinical chemistry and urinalysis parameters (Sprague Dawley rats; rats, main study, all dose levels): unaffected
macroscopic findings (Sprague Dawley rats; [3]): no test article-related macroscopic findings
microscopic findings (Sprague Dawley rats; [3]): no test article-related microscopic findings
organ weights (Sprague Dawley rats; [3]): no test article-related organ weight changes
microscopic findings (Sprague Dawley rats; rats, recovery study): No test article-related microscopic findings were noted
macroscopic findings (Sprague Dawley rats; [4]): no test article-related macroscopic findings
organ weights (Sprague Dawley rats; [4]): no test article-related organ weight changes
AUC(0-t) ([1]; 1 mg/kg/day, s.c. 1 mg/kg/day, day 1, sexes combined): 0.263 ± 0.0315 ng·h/mL
AUC(0-t) ([1]; 1 mg/kg/day, s.c. 1 mg/kg/day, day 28, sexes combined): 0.464 ± 0.0741 ng·h/mL
Cmax ([1]; 1 mg/kg/day, s.c. once daily 1 mg/kg/day, day 1, sexes combined): 0.591 ± 0.25 ng/mL
Cmax ([1]; 1 mg/kg/day, s.c. once daily 1 mg/kg/day, day 28, sexes combined): 0.968 ± 0.28 ng/mL
half-life ([1]; 1 mg/kg/day, rats, s.c. 1 mg/kg/day, day 1, sexes combined): 36 ± 6 min
half-life ([1]; 1 mg/kg/day, rats, s.c. 1 mg/kg/day, day 28, sexes combined): 30.6 ± 9 min
Tmax ([1]; 1 mg/kg/day, rats, s.c. 1 mg/kg/day, day 1, sexes combined, average (range lowest to highest)): 6.6 min
Tmax ([1]; 1 mg/kg/day, rats, s.c. 1 mg/kg/day, day 28, sexes combined, average (range lowest to highest)): 10.2 min
AUC(0-t) ([1]; 5 mg/kg/day, s.c. 5 mg/kg/day, day 1, sexes combined): 1.55 ± 0.789 ng·h/mL
AUC(0-t) ([1]; 5 mg/kg/day, s.c. 5 mg/kg/day, day 28, sexes combined): 2.86 ± 1.72 ng·h/mL
Cmax ([1]; 5 mg/kg/day, s.c. once daily 5 mg/kg/day, day 1, sexes combined): 3.37 ± 1.99 ng/mL
Cmax ([1]; 5 mg/kg/day, s.c. once daily 5 mg/kg/day, day 28, sexes combined): 5.35 ± 2.77 ng/mL
half-life ([1]; 5 mg/kg/day, rats, s.c. 5 mg/kg/day, day 1, sexes combined): 25.2 ± 7.8 min
half-life ([1]; 5 mg/kg/day, rats, s.c. 5 mg/kg/day, day 28, sexes combined): 22.2 ± 7.8 min
Tmax ([1]; 5 mg/kg/day, rats, s.c. 5 mg/kg/day, day 1, sexes combined, average): 4.98 min
Tmax ([1]; 5 mg/kg/day, rats, s.c. 5 mg/kg/day, day 28, sexes combined, average (range lowest to highest)): 11.4 min
AUC(0-t) ([1]; 40 mg/kg/day, s.c. 40 mg/kg/day, day 1, sexes combined): 16.1 ng·h/mL
AUC(0-t) ([1]; 40 mg/kg/day, s.c. 40 mg/kg/day, day 28, sexes combined): 29.6 ng·h/mL
Cmax ([1]; 40 mg/kg/day, s.c. once daily 40 mg/kg/day, day 1, sexes combined): 40.8 ng/mL
Cmax ([1]; 40 mg/kg/day, s.c. once daily 40 mg/kg/day, day 28, sexes combined): 62.5 ng/mL
half-life ([1]; 40 mg/kg/day, rats, s.c. 40 mg/kg/day, day 1, sexes combined): 19.8 ± 4.8 min
half-life ([1]; 40 mg/kg/day, rats, s.c. 40 mg/kg/day, day 28, sexes combined): 23.4 ± 3.6 min
Tmax ([1]; 40 mg/kg/day, rats, s.c. 40 mg/kg/day, day 1, sexes combined, average (range lowest to highest)): 8.4 min
Tmax ([1]; 40 mg/kg/day, rats, s.c. 40 mg/kg/day, day 28, sexes combined, average (range lowest to highest)): 10.2 min
AUC0–2hr averaged accumulation ratio ([1]; rats, 1 mg/kg/day): 1.76
F:M AUC0–2hr ratio ([1]; rats, 5 mg/kg/day): 0.66–1.58
AUC0–2hr averaged accumulation ratio ([1]; rats, 40 mg/kg/day): 1.84
F:M AUC0–2hr ratio ([1]; rats, 40 mg/kg/day): 1.16–1.32
fold increase in AUC0–2hr for a 40-fold increase in dose ([1]; rats, day 1, sexes combined): ~61.22 fold
fold increase in Cmax for a 40-fold increase in dose ([1]; rats, day 1, sexes combined): ~69.09 fold
fold increase in AUC0–2hr for a 40-fold increase in dose ([1]; rats, day 28, sexes combined): ~63.93 fold
fold increase in Cmax for a 40-fold increase in dose ([1]; rats, day 28, sexes combined): ~64.56 fold
F:M Cmax ratios ([1]; rats, day 28, range across doses): 1.24 – 1.37
Kel ([1]; rats, s.c. 1 mg/kg/day, day 1, sexes combined): 1.18 ± 0.18, 6 hr–1
Kel ([1]; rats, s.c. 5 mg/kg/day, day 1, sexes combined): 1.79 ± 0.67, 6 hr–1
Kel ([1]; rats, s.c. 5 mg/kg/day, day 28, sexes combined): 2.08 ± 0.86, 6 hr–1
Kel ([1]; rats, s.c. 40 mg/kg/day, day 1, sexes combined): 2.24 ± 0.83, 6 hr–1
Kel ([1]; rats, s.c. 40 mg/kg/day, day 28, sexes combined): 1.82 ± 0.28, 6 hr–1
time post-dose up to which PNA5 plasma concentrations were quantifiable ([1]; rats, s.c. 1, 5 or 40 mg/kg/day, day 1 and day 28, last sampling time 2 h): up to 2 h
clinical observations, heart rate, arterial blood pressure, pulse pressure, body temperature and ECG waveforms (male Beagle dogs): no effect
respiratory rate, tidal volume and calculated minute volume (male Sprague Dawley rats): no effect
tolerability (mortality, adverse findings) (Beagle dogs; Beagle dogs, main and recovery studies, s.c. bolus once daily 28 days, 1, 5, 20 mg/kg/day): well tolerated at all doses with no effects on mortality or adverse findings
no-observed-adverse-effect-level (NOAEL) (Beagle dogs; Beagle dogs, s.c. once daily for 28 days): 20 mg/kg/day
body weights and body weight gains (Beagle dogs; [5]): unaffected
clinical observations (Beagle dogs; [5]): no test article-related clinical observations
electrocardiography (Beagle dogs; [5]): no test article-related clinical observations or effects
food consumption (Beagle dogs; [5]): unaffected
organ weights (Beagle dogs; [5]): no test article-related clinical observations or effects
survival (Beagle dogs; dogs, 1, 5 and 20 mg/kg/day s.c. for 28 days): All animals survived until the scheduled euthanasia
ophthalmic examinations (Beagle dogs; dogs, all test article-treated groups): No ophthalmic lesions indicative of toxicity were observed
hematology, coagulation, clinical chemistry and urinalysis parameters (Beagle dogs; dogs, main study): unaffected
macroscopic findings (Beagle dogs; [6]): No test article-related macroscopic findings were noted
microscopic findings (Beagle dogs; [6]): No test article-related microscopic findings were noted
macroscopic findings (Beagle dogs; dogs, recovery study, day 43): No test article-related macroscopic findings were noted
microscopic findings (Beagle dogs; dogs, recovery study, day 43): No test article-related microscopic findings were noted
organ weights (Beagle dogs; dogs, recovery study, day 43): no test article-related organ weight changes
subcutaneous injection sites with dark red subcutaneous foci (Beagle dogs; dogs, treated group animals, main study, lacked a dose response, considered an effect of subcutaneous injection): 5 of 96
